Patent US8389541B2, “Inhibitors of protein tyrosine kinase activity” (MethylGene Inc., priority 2007, dated 2013)
Where two headings read alike, the source gives them in different places.

Assays:
Parameters in all cases: species or system mice
H1437 tumor = assay: In vivo solid tumor disease model, H1437; conditions: H1437, 15 mg/kg orally daily, 16 days
Panc-1 tumor = assay: In vivo solid tumor disease model, Panc-1; conditions: Panc-1, 20 mg/kg orally daily, 13 days
U87MG tumor = assay: In vivo solid tumor disease model, U87MG; conditions: Mus musculus, U-87 MG, po, 20 mg/kg orally daily, read-out: Tumor Growth Inhibition (%)
Text: (§1) This test measures the capacity of compounds to inhibit solid tumor growth.
(§2) Tumor xenografts are established in the flank of female athymic CD1 mice (Charles River Inc.), by subcutaneous injection of 1×106 U87, A431 or SKLMS cells/mouse. Once established, tumors are then serially passaged s.c. in nude mice hosts. Tumor fragments from these host animals are used in subsequent compound evaluation experiments. For compound evaluation experiments female nude mice weighing approximately 20 g are implanted s.c. by surgical implantation with tumor fragments of ˜30 mg from donor tumors. When the tumors are approximately 100 mm3 in size (˜7-10 days following implantation), the animals are randomized and separated into treatment and control groups. Each group contains 6-8 tumor-bearing mice, each of which is ear-tagged and followed individually throughout the experiment.
(§3) Mice are weighed and tumor measurements are taken by calipers three times weekly, starting on Day 1. These tumor measurements are converted to tumor volume by the well-known formula (L+W/4)3 4/3π. The experiment is terminated when the control tumors reach a size of approximately 1500 mm^3. In this model, the change in mean tumor volume for a compound treated group/the change in mean tumor volume of the control group (non-treated or vehicle treated)×100 (ΔT/ΔC) is subtracted from 100 to give the percent tumor growth inhibition (% TGI) for each test compound. In addition to tumor volumes, body weight of animals is monitored twice weekly for up to 3 weeks.

SKLMS tumor = assay: In vivo solid tumor disease model, SKLMS; conditions: 20 mg/kg orally daily, 15 days
Text: as §1, §2
Mice are weighed and tumor measurements are taken by calipers three times weekly, starting on Day 1. These tumor measurements are converted to tumor volume by the well-known formula (L+W/4)3 4/3π. The experiment is terminated when the control tumors reach a size of approximately 1500 mm^3. […] In addition to tumor volumes, body weight of animals is monitored twice weekly for up to 3 weeks.

MKN45 tumor = assay: In vivo solid tumor disease model, MKN45; conditions: Mus musculus, MKN-45, po, 168 h; MKN45, 20 mg/kg orally daily, 7 days; read-out: Tumor Growth Inhibition (%)
MNNG HOS tumor = assay: In vivo solid tumor disease model, MNNG HOS; conditions: 20 mg/kg orally daily, 6 days
SKLMS40 tumor = assay: In vivo solid tumor disease model, SKLMS40; conditions: Mus musculus, po, 312 h; SKLMS40, 20 mg/kg orally daily, 13 days; read-out: Tumor Growth Inhibition (%)
Text: as §1, §2, §3

MDAMB231 tumor = assay: In vivo solid tumor disease model, MDAMB231; conditions: MDAMB231, 20 mg/kg orally daily, 13 days
HCT116 tumor = assay: In vivo solid tumor disease model, HCT116; conditions: HCT116, 20 mg/kg orally daily, 13 days

SMILES: COCCNCc1ccc(-c2cc3nccc(Oc4ccc(NC(=S)NC(=O)Cc5ccc(F)cc5)c(F)c4)c3s2)nc1
- Tumor Growth Inhibition (%) (H1437 tumor): A (tumor growth inhibition of less than 25%)

SMILES: COCCNCc1ccc(-c2cc3nccc(Oc4ccc(NC(=O)Nc5coc(C)c5)cc4F)c3s2)nc1
- Tumor Growth Inhibition (%) (Panc-1 tumor): D D D (tumor growth inhibition of ≧75%)
- inhibition in vivo at 20 mg/kg (U87MG tumor; 312 h, 13 days): ≥ 75%
- Tumor Growth Inhibition (%) (SKLMS tumor): D D D (tumor growth inhibition of ≧75%)

SMILES: COCCNCc1ccc(-c2cc3nccc(Oc4ccc(NC(=O)NNC(=O)c5ccccc5)cc4F)c3s2)nc1
- Tumor Growth Inhibition (%) (Panc-1 tumor): A (tumor growth inhibition of less than 25%)

SMILES: COCCNCc1cccc(-c2cc3nccc(Oc4ccc(NC(=S)NC(=O)Cc5ccc(F)cc5)cc4F)c3s2)c1 [drawing 360]
- inhibition in vivo at 20 mg/kg (MKN45 tumor): 50 to 75%
- Tumor Growth Inhibition (%) (MNNG HOS tumor): A (tumor growth inhibition of less than 25%)

SMILES: COCCNCc1ccc(-c2cc3nccc(Oc4ccc(NC(=O)C5(C(=O)Nc6ccc(F)cc6)CC5)cc4F)c3s2)nc1 [drawing 376]
- inhibition in vivo at 20 mg/kg (SKLMS40 tumor): ≥ 75%
- Tumor Growth Inhibition (%) (MDAMB231 tumor): D D D (tumor growth inhibition of ≧75%)
- inhibition in vivo at 20 mg/kg (U87MG tumor; 288 h, 12 days): ≥ 75%

SMILES: COCCNCc1ccc(-c2cc3nccc(Oc4ccc(NC(=O)Nc5cc(C(C)(C)C)on5)cc4F)c3s2)nc1 [drawing 379]
- Tumor Growth Inhibition (%) (HCT116 tumor): C (tumor growth inhibition of ≧50% but <75%)
